Measurements taken from the supplement of paper PMC11061612.

Key:
Assay in all cases: combination Emax (second highest fraction inhibited in the dose matrix, 72 h); higher = more inhibition; extreme values may be limits of the assay
D-392MG (Glioblastoma) = tested on: D-392MG (Glioblastoma)
How it was run: (§1)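 Cell lines in DMEM/F12 or RPMI with 10% FBS were plated in 1536-well plates, held 24 hours at 37°C, 5% CO2, then given two-drug dose matrices for 72 hours (DMSO typically 0.2%). Viability was read by CellTiter-Glo 2.0 luminescence and scaled as inhibition from 0 (vehicle wells) to 1 (blank wells). Combination Emax is the second-highest inhibition in the matrix; Bliss excess is observed combination effect minus expected EA + EB − EA·EB, EA and EB being single-agent effects.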

[1] = tested on: DOK (Oral Cavity Carcinoma)
How it was run: as §1

[2] = tested on: EFM-192A (Breast Carcinoma)
How it was run: as §1

[3] = tested on: HCC-827 (Lung Adenocarcinoma)
How it was run: as §1

[4] = tested on: HCC1143 (Breast Carcinoma)
How it was run: as §1

HCC38 (Breast Carcinoma) = tested on: HCC38 (Breast Carcinoma)
How it was run: as §1

[5] = tested on: HCT-116 (Colorectal Carcinoma)
How it was run: as §1

[6] = tested on: JHH-6 (Hepatocellular Carcinoma)
How it was run: as §1

[7] = tested on: MEG-01 (Chronic Myelogenous Leukemia)
How it was run: as §1

[8] = tested on: MES-SA (Other Solid Carcinomas)
How it was run: as §1

[9] = tested on: NOMO-1 (Acute Myeloid Leukemia)
How it was run: as §1

[10] = tested on: P31-FUJ (Acute Myeloid Leukemia)
How it was run: as §1

[11] = tested on: PA-TU-8902 (Pancreatic Carcinoma)
How it was run: as §1

[12] = tested on: RCC10RGB (Kidney Carcinoma)
How it was run: as §1

[13] = tested on: SK-LMS-1 (Other Solid Carcinomas)
How it was run: as §1

[14] = tested on: SK-UT-1 (Other Solid Carcinomas)
How it was run: as §1

[15] = tested on: SKN-3 (Head and Neck Carcinoma)
How it was run: as §1

[16] = tested on: SNG-M (Endometrial Carcinoma)
How it was run: as §1

[17] = tested on: SW948 (Colorectal Carcinoma)
How it was run: as §1

[18] = tested on: WSU-DLCL2 (B-Cell Non-Hodgkin's Lymphoma)
How it was run: as §1

Row | Compound | combination Emax (D-392MG (Glioblastoma)) | combination Emax [1] | combination Emax [2] | combination Emax [3] | combination Emax [4] | combination Emax (HCC38 (Breast Carcinoma)) | combination Emax [5] | combination Emax [6] | combination Emax [7] | combination Emax [8] | combination Emax [9] | combination Emax [10] | combination Emax [11] | combination Emax [12] | combination Emax [13] | combination Emax [14] | combination Emax [15] | combination Emax [16] | combination Emax [17] | combination Emax [18]
1 | Cc1c2c(nn1C)CSCc1cc(n(C)n1)CSc1cc(c3ccccc3c1)OCCCc1c(C(=O)O)n(C)c3c-2c(Cl)ccc13 [AZD5991] + Cn1cnc2c(F)c(Nc3ccc(Br)cc3Cl)c(C(=O)NOCCO)cc21 [Selumetinib] (first compound max 1 µM, 7x7, partner max 3 µM) | 0.364 | 0.903 | 0.511 | 0.201 | 0.383 | 0.33 | 0.523 | 0.253 | 0.872 | 0.23 | 1 | 0.998 | 0.293 | 0.497 | 0.22 | 0.164 | 0.387 | 0.233 | 0.69 | 1
2 | COc1cccc2c1C(=O)c1c(O)c3c(c(O)c1C2=O)C[C@@](O)(C(=O)CO)C[C@@H]3O[C@H]1C[C@H](N)[C@H](O)[C@H](C)O1 [Doxorubicin] + Cc1cc2ncnn2cc1Nc1ncc2c(n1)n(C1CCOCC1)c(=O)n2C [AZD7648] (first compound max 1 µM, 7x7, partner max 10 µM) | 0.586 | 0.697 | 0.368 | 0.72 | 0.518 | 0.555 | 0.918 | 0.496 | 0.867 | 0.826 | 0.966 | 0.995 | 0.372 | 0.29 | 0.82 | 0.873 | 0.32 | 0.767 | 0.52 | 1
3 | Cn1cnc2c(F)c(Nc3ccc(Br)cc3Cl)c(C(=O)NOCCO)cc21 [Selumetinib] + CCN(CCO)CCCOc1ccc2c(Nc3cc(CC(=O)Nc4cccc(F)c4)[nH]n3)ncnc2c1 [AZD2811] (first compound max 10 µM, 7x7, partner max 1 µM) | 0.197 | 0.633 | 0.167 | 0.277 | 0.409 | 0.133 | 0.792 | 0.318 | 0.788 | 0.405 | 0.988 | 0.951 | 0.445 | 0.505 | 0.334 | 0.328 | 0.27 | 0.261 | 0.785 | 0.127
4 | CC(=O)c1c(C)c2cnc(Nc3ccc(N4CCNCC4)cn3)nc2n(C2CCCC2)c1=O [Palbociclib] + Cc1c2c(nn1C)CSCc1cc(n(C)n1)CSc1cc(c3ccccc3c1)OCCCc1c(C(=O)O)n(C)c3c-2c(Cl)ccc13 [AZD5991] (first compound max 10 µM, 7x7, partner max 1 µM) | 0.4 | 0.311 | 0.436 | 0.197 | 0.287 | 0.192 | 0.663 | 0.338 | 0.668 | 0.513 | 0.858 | 0.907 | 0.283 | 0.419 | 0.282 | 0.223 | 0.244 | 0.485 | 0.406 | 0.991
5 | CC1(C)CCC(CN2CCN(c3ccc(C(=O)NS(=O)(=O)c4ccc(NCC5CCOCC5)c([N+](=O)[O-])c4)c(Oc4cnc5[nH]ccc5c4)c3)CC2)=C(c2ccc(Cl)cc2)C1 [Venetoclax] + C[C@@H](Nc1cc(F)cc(F)c1)c1cc(C(=O)N(C)C)cc2c(=O)cc(N3CCOCC3)oc12 [AZD8186] (first compound max 1 µM, 7x7, partner max 3 µM) | 0.139 | 0.188 | 0.178 | 0.254 | 0.246 | 0.16 | 0.0935 | 0.193 | 0.646 | 0.168 | 0.931 | 0.866 | 0.115 | 0.447 | 0.412 | 0.206 | 0.148 | 0.655 | 0.264 | 0.888
6 | CC1(C)CCC(CN2CCN(c3ccc(C(=O)NS(=O)(=O)c4ccc(NCC5CCOCC5)c([N+](=O)[O-])c4)c(Oc4cnc5[nH]ccc5c4)c3)CC2)=C(c2ccc(Cl)cc2)C1 [Venetoclax] + C=CCn1c(=O)c2cnc(Nc3ccc(N4CCN(C)CC4)cc3)nc2n1-c1cccc(C(C)(C)O)n1 [AZD1775] (first compound max 1 µM, partner max 1 µM) | 0.5 | 0.333 | 0.327 | 0.413 | 0.548 | 0.573 | 0.579 | 0.296 | 0.913 | 0.787 | 0.99 | 0.942 | 0.286 | 0.572 | 0.61 | 0.921 | 0.402 | 0.729 | 0.773 | 0.995
7 | Cn1cnc2c(F)c(Nc3ccc(Br)cc3Cl)c(C(=O)NOCCO)cc21 [Selumetinib] + C[C@@H]1COCCN1C2=NC(=NC(=C2)C3(CC3)[S@](=N)(=O)C)C4=C5C=CNC5=NC=C4 [AZD6738] (first compound max 10 µM, 7x7, partner max 10 µM) | 0.302 | 0.51 | 0.135 | 0.413 | 0.766 | 0.373 | 0.8 | 0.445 | 0.975 | 0.601 | 0.994 | 0.948 | 0.357 | 0.513 | 0.496 | 0.801 | 0.457 | 0.866 | 0.732 | 0.762
8 | C[C@@H](c1ccc2nccn2c1)n1nnc2ncc(-c3cnn(C)c3)nc21 [Savolitinib] + Cc1c2c(nn1C)CSCc1cc(n(C)n1)CSc1cc(c3ccccc3c1)OCCCc1c(C(=O)O)n(C)c3c-2c(Cl)ccc13 [AZD5991] (first compound max 1 µM, 7x7, partner max 1 µM) | 0.31 | 0.372 | 0.587 | 0.283 | 0.402 | 0.207 | 0.162 | 0.103 | 0.148 | 0.191 | 0.864 | 0.94 | 0.184 | 0.289 | 0.223 | 0.174 | 0.216 | 0.32 | 0.215 | 0.985
9 | Cc1c2c(nn1C)CSCc1cc(n(C)n1)CSc1cc(c3ccccc3c1)OCCCc1c(C(=O)O)n(C)c3c-2c(Cl)ccc13 [AZD5991] + CN(C)CCCOc1ccc(-c2ccc3ncc4c(c3c2)n(C2CCOCC2)c(=O)n4C)cn1 [AZD0156] (first compound max 1 µM, 7x7, partner max 1 µM) | 0.252 | 0.331 | 0.587 | 0.345 | 0.364 | 0.365 | 0.265 | 0.188 | 0.432 | 0.384 | 0.863 | 0.974 | 0.192 | 0.243 | 0.205 | 0.245 | 0.339 | 0.209 | 0.296 | 1
10 | NC1(C(=O)N[C@@H](CCO)c2ccc(Cl)cc2)CCN(c2ncnc3[nH]ccc23)CC1 [Capivasertib] + CCN(CCO)CCCOc1ccc2c(Nc3cc(CC(=O)Nc4cccc(F)c4)[nH]n3)ncnc2c1 [AZD2811] (first compound max 10 µM, 7x7, partner max 1 µM) | 0.332 | 0.592 | 0.449 | 0.35 | 0.287 | 0.359 | 0.587 | 0.4 | 0.638 | 0.756 | 0.735 | 0.952 | 0.348 | 0.292 | 0.457 | 0.522 | 0.23 | 0.363 | 0.769 | 1
11 | COc1nnc2ccc(N3CCC(c4ccc(OCCN5CCN(C)C(=O)[C@H]5C)cc4)CC3)nn12 [AZD5153] + CCN(CCO)CCCOc1ccc2c(Nc3cc(CC(=O)Nc4cccc(F)c4)[nH]n3)ncnc2c1 [AZD2811] (first compound max 1 µM, 7x7, partner max 1 µM) | 0.456 | 0.544 | 0.361 | 0.43 | 0.431 | 0.426 | 0.759 | 0.552 | 0.895 | 0.587 | 0.961 | 0.982 | 0.323 | 0.565 | 0.548 | 0.658 | 0.462 | 0.502 | 0.65 | 0.942
12 | CC(=O)Nc1cccc(-n2c(=O)n(C3CC3)c(=O)c3c(Nc4ccc(I)cc4F)n(C)c(=O)c(C)c32)c1 [Trametinib] + Cc1nc(-c2cn3c(n2)-c2ccc(-c4cnn(C(C)(C)C(N)=O)c4)cc2OCC3)n(C(C)C)n1 [Taselisib] (first compound max 1 µM, 7x7, partner max 10 µM) | 0.709 | 0.998 | 0.72 | 0.762 | 0.763 | 0.364 | 1 | 0.636 | 0.953 | 0.825 | 0.98 | 0.915 | 0.724 | 0.69 | 0.974 | 0.597 | 0.655 | 0.871 | 0.994 | 0.936
